From US9260439B2, “Dihydropyrrolopyrimidine derivatives” (PFIZER INC., priority 2014, dated 2016)

Target: truncated PI3Kα (p110α/iSH2 p85α) (Homo sapiens (Human), UniProt P42336)
Assay: PI3KA_Act fluorescence polarization kinase assay (Ki)
Assay type: biochemical
Conditions: 1 mM ATP
How it was run: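 Ki values result from fitting fluorescence polarization signals to the Morrison equation for tight-binding competitive inhibitors. The detector was GST-Grp1 PH domain with TAMRA-PIP3, read after a 30 min room-temperature reaction of 0.5 nM truncated PI3Kα and 30 μM PIP2 at pH 7.4 in HEPES/NaCl/MgCl2/DTT/CHAPS buffer. Compounds were tested as 12-point 3-fold dilutions from 3 μM.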

Sequence of truncated PI3Kα (p110α/iSH2 p85α) (P42336 whole entry, the tested form may be a part): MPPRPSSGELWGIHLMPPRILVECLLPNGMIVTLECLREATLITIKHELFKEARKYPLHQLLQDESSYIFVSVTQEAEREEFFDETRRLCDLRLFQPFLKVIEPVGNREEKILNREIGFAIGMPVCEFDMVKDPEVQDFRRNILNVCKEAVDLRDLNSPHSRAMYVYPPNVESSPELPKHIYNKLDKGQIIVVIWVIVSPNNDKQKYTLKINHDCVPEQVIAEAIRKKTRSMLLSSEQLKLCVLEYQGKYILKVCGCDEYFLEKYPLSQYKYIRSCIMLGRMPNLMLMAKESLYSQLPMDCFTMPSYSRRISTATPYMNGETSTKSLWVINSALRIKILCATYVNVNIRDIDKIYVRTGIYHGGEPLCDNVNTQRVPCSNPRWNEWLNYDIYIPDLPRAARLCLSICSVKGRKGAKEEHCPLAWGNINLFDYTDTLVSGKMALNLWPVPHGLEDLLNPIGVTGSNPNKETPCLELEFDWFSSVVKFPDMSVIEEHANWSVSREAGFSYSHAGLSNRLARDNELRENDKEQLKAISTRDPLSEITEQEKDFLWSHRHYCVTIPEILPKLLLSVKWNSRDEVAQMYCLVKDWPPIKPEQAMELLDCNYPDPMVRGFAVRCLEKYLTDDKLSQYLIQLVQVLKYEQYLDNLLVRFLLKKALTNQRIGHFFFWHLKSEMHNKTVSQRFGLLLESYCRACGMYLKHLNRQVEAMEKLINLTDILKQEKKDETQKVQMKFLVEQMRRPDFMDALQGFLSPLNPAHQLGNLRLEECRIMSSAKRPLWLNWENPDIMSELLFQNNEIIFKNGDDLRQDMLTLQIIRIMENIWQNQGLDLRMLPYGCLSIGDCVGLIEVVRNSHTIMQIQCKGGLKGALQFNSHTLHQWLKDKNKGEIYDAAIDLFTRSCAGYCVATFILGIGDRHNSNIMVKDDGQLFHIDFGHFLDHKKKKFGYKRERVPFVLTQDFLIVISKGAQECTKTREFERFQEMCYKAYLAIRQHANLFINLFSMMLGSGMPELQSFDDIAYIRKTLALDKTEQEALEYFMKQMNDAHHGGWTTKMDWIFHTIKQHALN

SMILES	PI3KA_Act Ki
C[C@]1(N2CCc3c(-c4cnc(N)nc4)nc(N4CCOCC4)nc32)CCN(C(=O)C2CNC2)C1.Cl [Example 349, {(3S)-3-[4-(2-aminopyrimidin-5-yl)-2-(morpholin-4-yl)-5,6-dihydro-7H-pyrrolo[2,3-d]pyrimidin-7-yl]-3-methylpyrrolidin-1-yl}(azetidin-3-yl)methanone hydrochloride]	26 pM
C[C@]1(N2CCc3c(-c4cnc(N)nc4)nc(N4CCOCC4)nc32)CCN(C(=O)[C@]2(C)CCN2)C1.Cl [Example 350, {(3S)-3-[4-(2-aminopyrimidin-5-yl)-2-(morpholin-4-yl)-5,6-dihydro-7H-pyrrolo[2,3-d]pyrimidin-7-yl]-3-methylpyrrolidin-1-yl}[(2S)-2-methylazetidin-2-yl]methanone hydrochloride]	45 pM
C[C@]1(N2CCc3c(-c4cnc(N)nc4)nc(N4CCOCC4)nc32)CCN(C(=O)[C@@]2(C)CCN2)C1 [Example 351, {(3S)-3-[4-(2-aminopyrimidin-5-yl)-2-(morpholin-4-yl)-5,6-dihydro-7H-pyrrolo[2,3-d]pyrimidin-7-yl]-3-methylpyrrolidin-1-yl}[(2R)-2-methylazetidin-2-yl]methanone]	59 pM
C[C@]1(N2CCc3c(-c4cnc(N)nc4)nc(N4CCOCC4)nc32)CCN(C(=O)C2(F)CNC2)C1.Cl [Example 352, {(3S)-3-[4-(2-aminopyrimidin-5-yl)-2-(morpholin-4-yl)-5,6-dihydro-7H-pyrrolo[2,3-d]pyrimidin-7-yl]-3-methylpyrrolidin-1-yl}(3-fluoroazetidin-3-yl)methanone hydrochloride]	<18 pM
CN1CC[C@@H]1C(=O)N1CC[C@](C)(N2CCc3c(-c4cnc(N)nc4)nc(N4CCOCC4)nc32)C1 [Example 353, {(3S)-3-[4-(2-aminopyrimidin-5-yl)-2-(morpholin-4-yl)-5,6-dihydro-7H-pyrrolo[2,3-d]pyrimidin-7-yl]-3-methylpyrrolidin-1-yl}[(2R)-1-methylazetidin-2-yl]methanone]	78 pM
CN1CC[C@H]1C(=O)N1CC[C@](C)(N2CCc3c(-c4cnc(N)nc4)nc(N4CCOCC4)nc32)C1 [Example 354, {(3S)-3-[4-(2-aminopyrimidin-5-yl)-2-(morpholin-4-yl)-5,6-dihydro-7H-pyrrolo[2,3-d]pyrimidin-7-yl]-3-methylpyrrolidin-1-yl}[(2S)-1-methylazetidin-2-yl]methanone]	49 pM
CN1CCC1(C)C(=O)N1CC[C@](C)(N2CCc3c(-c4cnc(N)nc4)nc(N4CCOCC4)nc32)C1 (stereo partly drawn) [Example 355, {(3S)-3-[4-(2-aminopyrimidin-5-yl)-2-(morpholin-4-yl)-5,6-dihydro-7H-pyrrolo[2,3-d]pyrimidin-7-yl]-3-methylpyrrolidin-1-yl}(1,2-dimethylazetidin-2-yl)methanone]	102 pM
CN1CC(C(=O)N2CC[C@](C)(N3CCc4c(-c5cnc(N)nc5)nc(N5CCOCC5)nc43)C2)C1 [Example 356, {(3S)-3-[4-(2-aminopyrimidin-5-yl)-2-(morpholin-4-yl)-5,6-dihydro-7H-pyrrolo[2,3-d]pyrimidin-7-yl]-3-methylpyrrolidin-1-yl}(1-methylazetidin-3-yl)methanone]	37 pM
CC(C)(C)OC(=O)N1CC[C@H]1C(=O)N1CC[C@@](C)(N2CCc3c(-c4cnc(N)nc4)nc(N4CCOCC4)nc32)C1 [Example 357, tert-butyl (2S)-2-({(3R)-3-[4-(2-aminopyrimidin-5-yl)-2-(morpholin-4-yl)-5,6-dihydro-7H-pyrrolo[2,3-d]pyrimidin-7-yl]-3-methylpyrrolidin-1-yl}carbonyl)azetidine-1-carboxylate]	144 pM
CC(C)(C)OC(=O)N1CCC1C(=O)N1CC[C@](C)(N2CCc3c(-c4cnc(N)nc4)nc(N4CCOCC4)nc32)C1 (stereo partly drawn) [Example 358, tert-butyl 2-({(3S)-3-[4-(2-aminopyrimidin-5-yl)-2-(morpholin-4-yl)-5,6-dihydro-7H-pyrrolo[2,3-d]pyrimidin-7-yl]-3-methylpyrrolidin-1-yl}carbonyl)azetidine-1-carboxylate]	171 pM
